Measured values: patent publication US20250332173A1, “COMPOUNDS AND METHODS FOR MODULATING NUCLEIC ACID SPLICING” (REMIX THERAPEUTICS INC., priority 2021, published 2025)
pIC50: −log10 of the molar value.

How the values were obtained:
MYB = assay: HiBiT protein abundance assay, MYB HiBiT K562 cell line; format: cell-based, human; settings: HiBiT K562 cell line, 24 hours, top dose 10 μM; read-out: Effect on protein abundance, MYB (IC50 category)
Procedure, shortened: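 K562 knock-in lines with endogenous HiBiT-tagged target, 10,000 cells/well in IMDM + FBS, treated 24 h at 37° C with 10-point 3-fold dilutions (top 10 μM final; DMSO ≤0.25%). Lytic Nano-Glo HiBiT luminescence normalized to untagged K562 baseline and DMSO controls; IC50 = concentration giving 50% abundance via four-parameter fit.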

Target C = assay: HiBiT protein abundance assay, Target C (Promega Nano-Glo HiBiT Lytic Detection System, knock-in K562 cell line); format: cell-based, human; settings: Homo sapiens, K562, 24 h, HiBiT K562 cell line, 24 hours, top dose 10 μM; read-out: Effect on protein abundance, Target C (IC50 category)
Procedure, shortened: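 Knock-in K562 cells carrying HiBiT-tagged Target C, 10,000 per well, treated 24 h at 37 °C with 10-point threefold dilutions (top 10 μM final, ≤0.25% DMSO). Lytic HiBiT luminescence read; response normalised to unmodified K562 and DMSO controls, four-parameter fit interpolated at 50% for IC50.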

Compound | pIC50 (MYB) | pIC50 (Target C)
Cc1cn2nc(-c3ccc4c(=O)n(C5CCN(CCO)C6(CC6)C5)ncc4n3)cc(C)c2n1 (stereo not shown) [Compound 1541, 2-(2,8-dimethylimidazo[1,2-b]pyridazin-6-yl)-6-[4-(2-hydroxyethyl)-4-azaspiro[2.5]octan-7-yl]pyrido-[2,3-d]pyridazin-5-one] | 6.00 to 7.00 | 6.00 to 7.00
Cc1cn2cc(-c3ccc4c(=O)n(C5CCNC(C)(C)C5)cnc4c3)cc(F)c2n1 (stereo not shown) [Compound 237] | 6.00 to 7.00 | 5.00 to 6.00
Cc1cn2cc(-c3ccc4c(=O)n(C5CCNC6(CC6)C5)cnc4c3)cc(F)c2n1 (stereo not shown) [Compound 236] | 6.00 to 7.00 | 5.00 to 6.00
Cc1cn2cc(-c3ccc4c(c3)CCN(C3CCNCC3)C4=O)cc(Cl)c2n1 [Compound 216, 6-[8-chloro-2-methylimidazo[1,2-a]pyridin-6-yl]-2-(piperidin-4-yl)-3,4-dihydroisoquinolin-1-one] | 6.00 to 7.00 | 5.00 to 6.00
Cc1cn2cc(-n3cnc4cc(N5CCN(C)CC5)ccc4c3=O)cc(F)c2n1 [Compound 229] | < 5.00 | < 5.00
Cc1cn2cc(-c3cc(F)c4c(=O)n(C5CCNCC5)cnc4c3)cc(F)c2n1 [Compound 230] | > 7.00 | 6.00 to 7.00
CN1CCC(n2cnc3cc(-c4cc(F)c5nn(C)cc5c4)ccc3c2=O)CC1 [Compound 209] | < 5.00 | < 5.00
Cc1cc(-c2ccc3c(c2)CCN(C2CCNCC2)C3=O)cc2cn(C)nc12 [Compound 219, 6-(2,7-dimethylindazol-5-yl)-2-(piperidin-4-yl)-3,4-dihydroisoquinolin-1-one] | 6.00 to 7.00 | < 5.00
Cc1cn2nc(-c3ccc4c(c3)CCN(C3CCNCC3)C4=O)nc2c(C)n1 [Compound 222, 6-[6,8-dimethyl-[1,2,4]triazolo[1,5-a]pyrazin-2-yl]-2-(piperidin-4-yl)-3,4-dihydroisoquinolin-1-one] | 5.00 to 6.00 | 5.00 to 6.00
Cc1cn2cc(-c3ccc4c(=O)n(C5CCN(C)CC5)cnc4c3F)cc(F)c2n1 [Compound 227] | 5.00 to 6.00 | < 5.00
Cc1cn2cc(-n3cnc4cc(N5CCNCC5)ccc4c3=O)cc(F)c2n1 [Compound 228] | 6.00 to 7.00 | 6.00 to 7.00
Cc1c(O)c(-c2ccc3c(=O)n([C@H]4C[C@@H](C)N[C@@H](C)C4)ccc3n2)cc2cn(C)nc12 [Compound 1464, 6-[(2S,6R)-2,6-dimethyl-4-piperidyl]-2-(6-hydroxy-2,7-dimethyl-indazol-5-yl)-1,6-naphthyridin-5-one] | > 7.00 | 6.00 to 7.00
Cc1cn2cc(-c3ccc4c(=O)n(C5CCN(C)CC5)cnc4c3)cc(F)c2n1 [Compound 207] | 5.00 to 6.00 | 5.00 to 6.00
Cc1nc2c(F)cc(-c3ccc4c(c3)CCN(C3CCNCC3)C4=O)cc2s1 [Compound 226] | 5.00 to 6.00 | < 5.00

Other lines, results leading:

pIC50 (MYB) | pIC50 (Target C) | Compound
< 5.00 | < 5.00 | O=C1c2ccc(-c3cn[nH]c3)cc2CCN1C1CCNCC1 [Compound 220, 2-(piperidin-4-yl)-6-(1H-pyrazol-4-yl)-3,4-dihydroisoquinolin-1-one]
6.00 to 7.00 | 6.00 to 7.00 | Cn1cc2cc(-c3ccc4c(=O)n(C5CCNCC5)cnc4c3)cc(F)c2n1 [Compound 206]
5.00 to 6.00 | 5.00 to 6.00 | Cc1cn2cc(-c3ccc4c(c3)CCN(C3CCNCC3)C4=O)c(C)cc2n1 [Compound 218, 6-[2,7-dimethylimidazo[1,2-a]pyridin-6-yl]-2-(piperidin-4-yl)-3,4-dihydroisoquinolin-1-one]
5.00 to 6.00 | < 5.00 | Cc1cn2nc(-c3ccc4c(c3)CCN(C3CCNCC3)C4=O)cc2c(C)n1 [Compound 223, 6-[4,6-dimethylpyrazolo[1,5-a]pyrazin-2-yl]-2-(piperidin-4-yl)-3,4-dihydroisoquinolin-1-one]
5.00 to 6.00 | < 5.00 | CN1CCC(n2cnc3cc(-c4ccc5nn(C)cc5c4)ccc3c2=O)CC1 [Compound 208]
> 7.00 | 6.00 to 7.00 | Cc1c(O)c(-c2ncc3c(=O)n([C@@H]4CCN[C@@H](C)C4)ccc3n2)cc2cn(C)nc12 [Compound 1462, 2-(6-hydroxy-2,7-dimethyl-indazol-5-yl)-6-[(2S,4R)-2-methyl-4-piperidyl]pyrido[4,3-d]pyrimidin-5-one]
5.00 to 6.00 | 5.00 to 6.00 | Cc1cn2cc(-c3ccc4c(=O)n(C5CCNCC5)cnc4c3F)cc(F)c2n1 [Compound 210]
5.00 to 6.00 | < 5.00 | Cn1cc2cc(-c3ccc4c(c3)CCN(C3CCNCC3)C4=O)cc(F)c2n1 [Compound 225]
> 7.00 | 6.00 to 7.00 | Cc1cc(-c2cc(F)c3c(=O)n(C4CCNCC4)cnc3c2)cc2cn(C)nc12 [Compound 232]
6.00 to 7.00 | 6.00 to 7.00 | Cc1cc(-c2cc(F)c3c(=O)n(C4CCN(C)CC4)cnc3c2)cc2cn(C)nc12 [Compound 233]
6.00 to 7.00 | 5.00 to 6.00 | Cc1nc2c(F)cc(-c3ccc4c(c3)CCN(C3CCNCC3)C4=O)cc2o1 [Compound 215]
5.00 to 6.00 | 5.00 to 6.00 | Cc1cn2nc(-n3cnc4cc(N5CCNCC5)ccc4c3=O)cc(C)c2n1 [Compound 241]
6.00 to 7.00 | 5.00 to 6.00 | Cc1c(O)c(-c2ncc3c(=O)n([C@H]4CC[C@@H](N(C)C)CC4)ccc3n2)cc2cn(C)nc12 [Compound 1460, 6-((1s,4s)-4-(dimethylamino)cyclohexyl)-2-(6-hydroxy-2,7-dimethyl-2H-indazol-5-yl)pyrido[4,3-d]pyrimidin-5(6H)-one]
6.00 to 7.00 | 6.00 to 7.00 | Cn1cc2cc(-c3ncc4c(=O)n([C@H]5CCNC5)ccc4n3)c(O)c(F)c2n1 [Compound 1465]
> 7.00 | 6.00 to 7.00 | Cc1c(O)c(-c2ncc3c(=O)n([C@H]4CCN[C@H](C)C4)ccc3n2)cc2cn(C)nc12 [Compound 1461, 2-(6-hydroxy-2,7-dimethyl-indazol-5-yl)-6-[(2R,4S)-2-methyl-4-piperidyl]pyrido[4,3-d]pyrimidin-5-one]
6.00 to 7.00 | < 5.00 | Cc1cn2cc(-c3ccc4c(c3)CCN(C3CCNCC3)C4=O)cc(C)c2n1 [Compound 217, 6-[2,8-dimethylimidazo[1,2-a]pyridin-6-yl]-2-(piperidin-4-yl)-3,4-dihydroisoquinolin-1-one]
5.00 to 6.00 | 5.00 to 6.00 | Cc1cc(-c2ccc3c(=O)n(C4CCNCC4)cnc3c2F)cc2cn(C)nc12 [Compound 234]
6.00 to 7.00 | 6.00 to 7.00 | Cc1cn2cc(-c3ccc4c(=O)n(C5CCNCC5)cnc4c3)cc(F)c2n1 [Compound 205]
> 7.00 | > 7.00 | Cc1cn2nc(-c3cc(F)c4c(=O)n(C5CCN(C)CC5)cnc4c3)cc(C)c2n1 [Compound 242]
6.00 to 7.00 | 5.00 to 6.00 | Cc1c(O)c(-c2ccc3c(=O)n([C@@H]4C[C@@H](C)N[C@@H](C)C4)ccc3n2)cc2cn(C)nc12 [Compound 1463, 6-[(2S,6R)-2,6-dimethyl-4-piperidyl]-2-(6-hydroxy-2,7-dimethyl-indazol-5-yl)-1,6-naphthyridin-5-one]
6.00 to 7.00 | 6.00 to 7.00 | Cc1cn2nc(-c3ccc4c(=O)n(C5C[C@@H](C)N[C@H](C)C5)ncc4n3)cc(C)c2n1 (stereo in doubt) [Compound 1537, 2-(2,8-dimethylimidazo[1,2-b]pyridazin-6-yl)-6-[(2R,6R)-2,6-dimethyl-4-piperidyl]pyrido[2,3-d]pyridazin-5-one]
